Measurements published in US11110080B2, “Small molecule inhibitors of bacterial efflux pumps and methods of using same” (The Regents of the University of Colorado, a body Corporate, priority 2017, dated 2021).
Several values for one entry are separate records, joined by “and”; a condition that tells them apart may be missing. Identical values can stand only once. Entries after “also recorded” stand apart in the source; their conditions may differ. Like-named read-outs stand apart in the source and are kept apart here.

Assays:
[1] = test system: extracellular S.Tm grown in MHB broth; test: Broth activity assay (growth / MIC in Mueller Hinton Broth); type: cell-based, Salmonella enterica serovar Typhimurium; conditions: Salmonella enterica, three Salmonella strains SL1344, MAR1, S10801
Protocol: (§1) Overnight Salmonella cultures were washed 3 times in PBS and diluted to an OD of 0.01 in Mueller Hinton Broth in 96-well flat bottom plates. Compound was added using a pin tool (CyBio) or manually, yielding a final concentration of no more than 1% DMSO. Plates were grown at 37° C. shaking and OD600 was monitored using a BioTek Eon incubator shaker microplate absorbance reader. For experiments in defined media, bacteria were grown in M9 minimal media supplemented with 100 mM Tris pH 7.4, 0.35% glycerol, 0.002% histidine, 10 mM MgCl2, and 0.1% casamino acids. Where indicated, media was supplemented with 5 μg/ml polymyxin B or 0.2 mM H2O2. For experiments with LL-37, bacteria were grown in M9 minimal media supplemented with 0.4% dextrose, 0.004% histidine, 1 mM MgSO4, and 5 μg/ml LL-37. For checkerboard assays, MIC was defined as the concentration at which no growth was visually observed.

S.Tm efflux pumps = test: Hoechst 33342 accumulation assay; type: cell-based, Salmonella enterica serovar Typhimurium
Protocol: Efflux pumps (EPs) represent a key pathogen virulence strategy to protect against host antimicrobials as well as therapeutic antibiotics. […] To uncover putative EPMs within our collection of hits, 58 repurchased compounds were screened in a Hoechst accumulation assay. Bacteria were incubated with Hoechst 33342, a dye which fluoresces when bound to DNA.
Hoechst accumulation assays were performed essentially as described in the literature. Briefly, overnight Salmonella cultures were washed 3 times in PBS and diluted to an OD of 0.1 in PBS with 2.5 μM Hoechst 33342 in the presence of the indicated concentrations of compounds. Fluorescence was monitored on a Biotek Synergy 2 with a 360/40 nm excitation filter and 460/40 nm emission filter. The maximum Hoechst fluorescence over 60 minutes of incubation was normalized to the signal from the equivalent number of heat-killed bacteria, after subtraction of autofluroescent signal determined from compound incubated in the absence of bacteria. Curve fitting to determine EC50s was performed using GraphPad Prism.

S.Tm = test: Swimming assay in soft agar (proton motive force); type: cell-based, Salmonella enterica serovar Typhimurium; conditions: 50 mM, 10 μl on disk (500×, 125×, ~62.5× the MIC for EPM30, EPM35, EPM43)
wild-type S.Tm = test: Growth in broth with antimicrobial peptides (polymyxin B, LL-37) and EPMs; type: cell-based, Salmonella enterica serovar Typhimurium; conditions: polymyxin B 5 μg/ml (⅛ MIC) + 25 μM EPM
Text: Next, it was investigated how EPMs might lead to bacterial clearance within host cells. […] Instead, EPMs may synergize with a host antimicrobial(s) that is effluxed by EPs. Two S.Tm EPs are necessary for infection of macrophages and mice (FIG. 10). The first EP, MacAB, is important for defense against ROS. The second S.Tm EP, AcrAB, is a homolog of MtrCDE, an EP in Neisseria gonorrhoeae which exports host antimicrobial peptides (AMPs). AcrAB thus likely exports AMPs as well as a variety of other substrates including antibiotics, dyes, and detergents. To test whether the EPMs synergize with macrophage defenses, wild-type bacteria was exposed in broth to ROS or AMPs in the presence of EPMs. […] Next, the two AMPs were tested: polymyxin B is a model peptide produced by bacteria; LL-37 is a human cathelicidin produced by macrophages.
Overnight Salmonella cultures were washed 3 times in PBS and diluted to an OD of 0.01 in Mueller Hinton Broth in 96-well flat bottom plates. Compound was added using a pin tool (CyBio) or manually, yielding a final concentration of no more than 1% DMSO. Plates were grown at 37° C. shaking and OD600 was monitored using a BioTek Eon incubator shaker microplate absorbance reader. For experiments in defined media, bacteria were grown in M9 minimal media supplemented with 100 mM Tris pH 7.4, 0.35% glycerol, 0.002% histidine, 10 mM MgCl2, and 0.1% casamino acids. […]

[2] = test system: S.Tm wild-type SL1344, MAR1 and S10801; test: microbe, parasite or virus in culture; type: cell-based, Salmonella enterica serovar Typhimurium; conditions: for sensitivity of MDR S.Tm to tetracycline: MAR1 and S10801
Protocol: Increased expression or function of efflux pumps often contributes to clinical multidrug resistance. Therefore, whether the EPMs re-sensitize two multidrug resistant strains of S.Tm to tetracycline was tested. Tetracycline is an antibiotic exported by AcrAB. The MAR1 strain is derived from wild-type SL1344 was selected by exposure to tetracycline, and has increased expression of the AcrAB efflux pump. S10801 is an MDR strain isolated from the mesenteric lymph node of a septic calf and is resistant to tetracycline, ampicillin, chloramphenicol, nalidixic acid, and triple sulfa. The basis of multi-drug resistance in this strain is unknown.
as §1

K. pneumoniae = test: Nile Red export in MDR clinical isolate; type: cell-based, Klebsiella pneumoniae; conditions: after glucose addition
Text: (§2) Six pathogens that cause the bulk of MDR nosocomial infections have been dubbed the ESKAPE pathogens: Enterococcus faecium, Staphylococcus aureus, Klebsiella pneumoniae, Acinetobacter baumannii, Pseudomonas aeruginosa, and Enterobacter species (56).
(§3) Referring to FIGS. 22A-22D: Defined strains obtained from BEI resources were examined for Nile Red retention after glucose addition in the presence of the indicated compound. *p<0.05; **p<0.01; ***p<0.001; ****p<0.0001 as determined by comparison to DMSO+glucose with a one-way ANOVA and Dunnett's multiple comparison post-test.
(§4) Nile Red assays were adapted from an established protocol. Briefly, overnight Salmonella cultures were grown in Mueller-Hinton cation-adjusted broth (Sigma), washed, and resuspended at an OD600 of 2.0. Cells were incubated in 10 μM Nile Red for 3 hours at 37° C. with aeration, then moved to room temperature for 1 hour. After pelleting at 2000× g, dye-loaded cells were aliquoted and combined with compound at the indicated concentrations. Two hundred microliters was loaded into 96-well black walled plates (Greiner) and read using a Varioskan Flash Multimode Reader with 540 nm excitation and 625 nm emission filters. We observed that during loading into plates (˜20 minutes), bacteria were able to efflux Nile Red even in the absence of glucose (FIG. 8A). […]

Enterobacter cloacae = test: Nile Red export in MDR clinical isolate; type: cell-based; conditions: after glucose addition
Text: as §2, §3, §4

E. coli = test: Nile Red export in E. coli; type: cell-based; conditions: after glucose addition
Text: as §2, §3, §4

| Compound | MIC [1] | Hoechst assay EC50 relative to PAβN (S.Tm efflux pumps) | Hoechst accumulation / fluorescence (S.Tm efflux pumps; wild-type S.Tm, 60 minutes) | halo in swimming assay (S.Tm) | growth on co-treatment with polymyxin B (wild-type S.Tm) | decrease of the tetracycline MIC ([2]; 50 μM (⅛ MIC), both strains MAR1 and S10801) [fold] | sensitivity of MDR S.Tm to tetracycline [2] | Nile Red export (K. pneumoniae) | Nile Red export (Enterobacter cloacae) | Nile Red export (E. coli) | Hoechst accumulation / fluorescence (S.Tm efflux pumps) |
| --- | --- | --- | --- | --- | --- | --- | --- | --- | --- | --- | --- |
| OC(COc1ccc(Cl)c(Cl)c1)CN1CCC(Nc2nccc(C(F)(F)F)n2)CC1 (stereo not drawn) [EPM35] | 400 µM and 186 µg/mL | lower than that of PAβN | increased S.Tm accumulation of Hoechst in a dose-dependent manner; also recorded: fluorescence comparable to that of PAβN | formed a small halo | completely inhibited growth | 4 | increased sensitivity to tetracycline | significantly reduced Nile Red export | significantly reduced Nile Red export | significantly reduced Nile Red export |  |
| Cc1ccc(Sc2cccc3nc(N)nc(N)c23)cc1 [EPM43] | > 400 µM and 113 µg/mL |  |  | formed no halo | completely inhibited growth |  | not | significantly reduced Nile Red export | significantly reduced Nile Red export | significantly reduced Nile Red export | increased S.Tm accumulation of Hoechst in a dose-dependent manner; also recorded: fluorescence comparable to that of PAβN |
